Experiment: Dissolution test of samples filled in hard gelatin capsules (Ph. Eur. Type 2 device)
Format: physicochemical
Conditions: Example 2 samples (pure silybin/silydianin), tested as described for Example 1 (capsule, pH 7.5, 100 rpm)
Protocol: For this purpose 100 mg of each Samples were filled in hard gelatin capsules (number 00). Individual capsules underwent the test on the device as per the Ph. Eur. Type 2 in 2 litres of the dissolution medium pH 7.5 and under 100 revolutions per minute.

Question: For `COc1cc(C2Oc3cc([C@H]4Oc5cc(O)cc(O)c5C(=O)[C@@H]4O)ccc3OC2CO)ccc1O` (some centres unmarked) [Silybin, silybin], which “Dissolution Values, 30 minutes” value (after 30 minutes) is on record?
Answer: The value was 4.6%.

Question: What about the “Dissolution Values, 60 minutes” value (after 60 minutes) of the same compound?
Answer: The value was 4.5%.
